Results as given in PMC6915745, “TRIB3 supports breast cancer stemness by suppressing FOXO1 degradation and enhancing SOX2 transcription” (Nature Communications, 2019).
Read-outs that look alike come from different tables or passages of the source. Peptide text beside a SMILES is read from it. * marks the point of attachment. Cbz = O=C(OCc1ccccc1)*

Assays:
FOXO1 [1] = test: FOXO1 protein stability (cycloheximide chase), MCF7 cells; type: cell-based, human; settings: for degradation of FOXO1: CHX 20 μM plus BAF 200 nM or MG132 10 μM, in words; for FOXO1 half-life: CHX, authors' reply to reviewers, control about 3 hr
Procedure: Fig. 5 TRIB3 stabilizes the FOXO1 protein by suppressing its ubiquitination. a, b HMLE cells transfected with a TRIB3-expressing vector vs. a control vector (a) or MCF7 cells transfected with TRIB3-shRNA vs. CTRL-shRNA (b) were incubated with 20 μM cycloheximide (CHX) for the indicated times. c, d The effect of TRIB3 depletion on FOXO1 degradation in vitro. MCF7 cells (c) were incubated with CHX (20 μM), CHX plus bafilomycin (BAF, 200 nM), or MG132 (10 μM) for the indicated times. Control or TRIB3-silenced MCF7 cells (d, top) and MDA-MB-231 cells (d, bottom) were incubated with DMSO, 200 nM BAF, or 10 μM MG132 for 8 h. The indicated proteins were detected by immunoblotting. e, f FOXO1 activity in HMLE cells (e) transfected with a control vector or a TRIB3-expressing vector, or in MCF7 cells (f) transfected with CTRL-shRNA or TRIB3-shRNA and either a control vector or a FOXO1-expressing vector. g, h The effect of TRIB3 on FOXO1 ubiquitination. HMLE (g) or MCF7 cells (h) were transfected with the indicated plasmid. His-ubiquitin-conjugated proteins were pulled down from cell lysates. Total protein lysates and Ni-NTA-agarose eluates were immunoblotted for FLAG, His, and TRIB3. Source data are provided as a Source Data file. […] I left them out because their labels are genetic constructs, not substances; their digits are also small
(§1) Cycloheximide (CHX; Sigma Aldrich, R750107) was used as a protein synthesis inhibitor to assess the stability of the existing proteins. To assess protein stability, cells were treated with 20 μM CHX and the proteasome inhibitor MG132 (Sigma Aldrich, R750107) at 10 μM or the autophagy inhibitor BAF (Sigma Aldrich, B1793) at 200 nM for the indicated times. Protein expression was assessed via immunoblot analysis with cell lysates (20–60 μg) prepared in RIPA lysis buffer containing protease inhibitors (Roche) using anti-SOX2 (3529), anti-NANOG (4903), anti-OCT4 (2750), anti-KLF4 (4038), anti-c-Myc (13987), anti-FOXO1 (2880), anti-p-FOXO1 (9461), anti-AKT (4685), anti-p-AKT (4060), anti-β-ACTIN (4970), anti-Ubiquitin (3936), or anti-LaminA/C (4777) antibodies from CST; anti-TRIB3 antibody (ab75846) from Abcam; and anti-Trib3 antibody (PA5-15480) from Thermo Fisher Scientific[59]. All antibodies were used at 1:1000 dilution, with the exception of anti-β-Actin antibodies, which were used at 1:2000 dilution. The protein concentrations were determined by BCA Protein Assay Kits (Pierce). Proteins were separated by SDS-polyacrylamide gel electrophoresis (PAGE) and transferred to polyvinylidene difluoride membrane.

FOXO1 [2] = test: FOXO1 immunoblot in control or TRIB3-silenced MCF7 cells with BAF or MG132; type: cell-based, human; settings: BAF 200 nM or MG132 10 μM, 8 h, in words
Procedure: (§2) Fig. 5 TRIB3 stabilizes the FOXO1 protein by suppressing its ubiquitination. a, b HMLE cells transfected with a TRIB3-expressing vector vs. a control vector (a) or MCF7 cells transfected with TRIB3-shRNA vs. CTRL-shRNA (b) were incubated with 20 μM cycloheximide (CHX) for the indicated times. c, d The effect of TRIB3 depletion on FOXO1 degradation in vitro. MCF7 cells (c) were incubated with CHX (20 μM), CHX plus bafilomycin (BAF, 200 nM), or MG132 (10 μM) for the indicated times. Control or TRIB3-silenced MCF7 cells (d, top) and MDA-MB-231 cells (d, bottom) were incubated with DMSO, 200 nM BAF, or 10 μM MG132 for 8 h. The indicated proteins were detected by immunoblotting. e, f FOXO1 activity in HMLE cells (e) transfected with a control vector or a TRIB3-expressing vector, or in MCF7 cells (f) transfected with CTRL-shRNA or TRIB3-shRNA and either a control vector or a FOXO1-expressing vector. g, h The effect of TRIB3 on FOXO1 ubiquitination. HMLE (g) or MCF7 cells (h) were transfected with the indicated plasmid. His-ubiquitin-conjugated proteins were pulled down from cell lysates. Total protein lysates and Ni-NTA-agarose eluates were immunoblotted for FLAG, His, and TRIB3. […]
(§3) Cycloheximide (CHX; Sigma Aldrich, R750107) was used as a protein synthesis inhibitor to assess the stability of the existing proteins. […] The protein concentrations were determined by BCA Protein Assay Kits (Pierce). […]

FOXO1 [3] = test: FOXO1 immunoblot in control or TRIB3-silenced MDA-MB-231 cells with BAF or MG132; type: cell-based; settings: BAF 200 nM or MG132 10 μM, 8 h, in words
Procedure: as §2, §3

MCF7 cells = test: TRIB3/AKT/FOXO1/SOX2 axis after IL-6, CoCl2 or high glucose, MCF7 cells (WB); type: cell-based, human
[4] = tested on: TRIB3-silenced MCF7 cells; test: Immunoblot of AKT1/FOXO1/SOX2, TRIB3-silenced MCF7 cells with AKT1 inhibitor MK2206; type: cell-based, human; settings: Fig.6e, MCF7, TRIB3-shRNA, v.s CTRL-shRNA+DMSO
Description: (§4) Fig. 6 TRIB3 abrogates the AKT-FOXO1 interaction. a Supervised clustering of MCF7 cells transfected with CTRL-shRNA or TRIB3-shRNA using the log2-transformed values for genes in the FOXO1 upstream pathway, including AMPK, ERK, PI3K, p38, and JNK clustered genes expressed in all samples. Each column represents a separate case. Z-scores from IPA depicting the subnetwork gene expression differences between CTRL-shRNA and TRIB3-shRNA cases. The Z-score heat map depicts the five FOXO1 upstream subnetworks. Each row represents the data for the subnetwork indicated in the right margin. b, c TRIB3 inhibited the activity of AKT1 in BCCs. The indicated stable expression cell extracts were prepared and the levels of the indicated proteins were detected by immunoblotting. d, e The effects of the AKT1 agonist or antagonist for TRIB3-FOXO1-SOX2 axis in BCCs. The indicated cells were treated with the AKT1 agonist SC79 or the antagonist MK2206 for 24 h. […] HMLE cell extracts were IP with an anti-AKT1 Ab and blotted with an anti-TRIB3 or anti-FOXO1 Ab in the presence of the indicated concentration of the TRIB3-GST protein. Data are shown as the mean ± SEM; P > 0.05 was considered not significant (NS); *P < 0.05, **P < 0.01, and ***P < 0.001 compared with the vector or CTRL-shRNA group. Source data are provided as a Source Data file.
as §1

[5] = tested on: HMLE cells overexpressing TRIB3; test: Immunoblot of AKT1/FOXO1/SOX2, HMLE cells with AKT1 agonist SC79; type: cell-based, human; settings: for Relative fold change AKT1 / Relative fold change FOXO1 / Relative fold change SOX2 / Relative fold change TRIB3 / Relative fold change p-AKT(473S) / Relative fold change p-FOXO1(256S): Fig.6d, HMLE, TRIB3-shRNA, v.s CTRL-shRNA+DMSO
Description: as §4, §1

TRIB3 = TRIB3 expression after cytokines or stressors, MCF7 cells (WB); type: cell-based, human; settings: cytokines 8 hr, high glucose 24 hr
Procedure: as §1, with “membrane. […]” for “membrane.”
(f, g) The expression of
TRIB3 in MCF7 cells (top) or MDA-MB-231 cells (bottom) treated with various concentrations of IL6 for
8 hr (f) or 10 ng/ml IL-6 for different amounts of time (g) was detected by WB. (h) Silencing TRIB3
decreased the tumor sphere formation ability of MCF7 cells with or without IL-6 stimulation. […]
Data are shown as the mean ± SEM; P>0.05 was considered not significant (N.S.); *P<0.05, **P<0.01
and ***P<0.001, compared with the con group in panels d-f. Source data are provided as a Source Data

TRIB3-GST protein = molecular target: T1, TRIB3-GST protein (UniProt Q96RU7 1-358); test: SPR
T1 chain: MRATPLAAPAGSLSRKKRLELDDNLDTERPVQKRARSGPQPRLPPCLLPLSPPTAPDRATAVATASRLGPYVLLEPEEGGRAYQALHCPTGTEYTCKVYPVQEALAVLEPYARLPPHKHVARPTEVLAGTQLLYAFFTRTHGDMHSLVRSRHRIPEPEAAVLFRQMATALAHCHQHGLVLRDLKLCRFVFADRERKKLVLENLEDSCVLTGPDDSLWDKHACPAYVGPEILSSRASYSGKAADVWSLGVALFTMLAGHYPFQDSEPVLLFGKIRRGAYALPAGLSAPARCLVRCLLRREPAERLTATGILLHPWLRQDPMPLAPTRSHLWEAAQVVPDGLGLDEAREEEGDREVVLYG

[6] = HMLE cells overexpressing TRIB3, 24 h

CO/C1=C\C(C)=C\[C@@H](C)[C@@H](O)[C@@H](C)C/C(C)=C/C=C/[C@H](OC)[C@@H]([C@@H](C)[C@@H](O)[C@H](C)[C@@]2(O)C[C@@H](O)[C@H](C)[C@@H](C(C)C)O2)OC1=O [BAF, bafilomycin]
degradation of FOXO1 (FOXO1 [1]): not by the autophagy inhibitor bafilomycin | inhibition of FOXO1 reduction caused by TRIB3 silencing (FOXO1 [2]): not by BAF | inhibition of FOXO1 reduction caused by TRIB3 silencing (FOXO1 [3]): not by BAF

[Cl-].[Cl-].[Co+2] [CoCl2, reference compound]
expressions of FOXO1 and SOX2 (MCF7 cells): enhance

O=c1cc(N2CCOCC2)oc2c(-c3ccccc3)cccc12 [LY294002]
FOXO1 half-life (FOXO1 [1]): 4.4 h

CC(C)C[C@@H](C=O)NC(=O)[C@H](CC(C)C)NC(=O)[C@H](CC(C)C)NC(=O)OCc1ccccc1 [MG132] (Cbz-Leu-Leu-Leu-aldehyde)
degradation of FOXO1 (FOXO1 [1]): inhibited by the proteasome inhibitor MG132 | FOXO1 half-life (FOXO1 [1]): 6 h | inhibition of FOXO1 reduction caused by TRIB3 silencing (FOXO1 [2]): inhibited by MG132 | inhibition of FOXO1 reduction caused by TRIB3 silencing (FOXO1 [3]): inhibited by MG132

NC1(c2ccc(-c3nc4ccn5c(=O)[nH]nc5c4cc3-c3ccccc3)cc2)CCC1 [MK-2206]
Relative fold change AKT1 ([4]; replicate 1): 0.657 | Relative fold change FOXO1 ([4]; replicate 1): 1.341 | Relative fold change SOX2 ([4]; replicate 1): 0.604 | Relative fold change TRIB3 ([4]; replicate 1): 0.180 | Relative fold change p-AKT(473S) ([4]; replicate 1): 0.243 | Relative fold change p-FOXO1(256S) ([4]; replicate 1): 0.564 | Relative fold change AKT1 ([4]; replicate 2): 0.717 | Relative fold change FOXO1 ([4]; replicate 2): 1.441 | Relative fold change SOX2 ([4]; replicate 2): 0.664 | Relative fold change TRIB3 ([4]; replicate 2): 0.200 | Relative fold change p-AKT(473S) ([4]; replicate 2): 0.263 | Relative fold change p-FOXO1(256S) ([4]; replicate 2): 0.614 | Relative fold change AKT1 ([4]; replicate 3): 0.597 | Relative fold change FOXO1 ([4]; replicate 3): 1.241 | Relative fold change SOX2 ([4]; replicate 3): 0.544 | Relative fold change TRIB3 ([4]; replicate 3): 0.160 | Relative fold change p-AKT(473S) ([4]; replicate 3): 0.223 | Relative fold change p-FOXO1(256S) ([4]; replicate 3): 0.514

CCOC(=O)C1=C(N)Oc2ccc(Cl)cc2C1C(C#N)C(=O)OCC (stereo not drawn) [SC79]
Relative fold change AKT1 ([5]; replicate 1): 1.9500 | Relative fold change FOXO1 ([5]; replicate 1): 0.4880 | Relative fold change SOX2 ([5]; replicate 1): 5.8119 | Relative fold change TRIB3 ([5]; replicate 1): 6.9492 | Relative fold change p-AKT(473S) ([5]; replicate 1): 1.6733 | Relative fold change p-FOXO1(256S) ([5]; replicate 1): 1.9882 | Relative fold change AKT1 ([5]; replicate 2): 2.1500 | Relative fold change FOXO1 ([5]; replicate 2): 0.5280 | Relative fold change SOX2 ([5]; replicate 2): 6.4119 | Relative fold change TRIB3 ([5]; replicate 2): 7.5492 | Relative fold change p-AKT(473S) ([5]; replicate 2): 1.7733 | Relative fold change p-FOXO1(256S) ([5]; replicate 2): 2.1782 | Relative fold change AKT1 ([5]; replicate 3): 1.7500 | Relative fold change FOXO1 ([5]; replicate 3): 0.4480 | Relative fold change SOX2 ([5]; replicate 3): 5.2119 | Relative fold change TRIB3 ([5]; replicate 3): 6.3492 | Relative fold change p-AKT(473S) ([5]; replicate 3): 1.5733 | Relative fold change p-FOXO1(256S) ([5]; replicate 3): 1.7982 | FOXO1 and SOX2 expression [5, 6]: inhibited FOXO1 and SOX2 expression | activity of AKT1 S473 and FOXO1 S256 [5, 6]: rescued the activity of AKT1^S473 and FOXO1^S256

OC[C@H]1OC(O)[C@H](O)[C@@H](O)[C@@H]1O (stereo partly drawn) [high glucose, glucose]
TRIB3 expression (TRIB3): enhanced TRIB3 expression in MCF7 cells | expressions of FOXO1 and SOX2 (MCF7 cells; MCF7 cells, IL-6 12 hr, CoCl2 24 hr, high glucose 24 hr, WB): enhanced expressions of FOXO1 and SOX2 | expressions of FOXO1 and SOX2 (MCF7 cells; MCF7 cells, IL-6 12 hr, CoCl2 24 hr, high glucose 24 hr, WB, listed as high-glucose): enhance | activity of FOXO1 S256 (MCF7 cells; MCF7 cells, IL-6 12 hr, high glucose 24 hr, WB): reduced the activity of FOXO1^S256

IL-1β: cytokine
TRIB3 expression (TRIB3): enhanced TRIB3 expression in MCF7 cells

transforming growth factor-β
TRIB3 expression (TRIB3): enhanced TRIB3 expression in MCF7 cells

tumor necrosis factor-α
TRIB3 expression (TRIB3): enhanced TRIB3 expression in MCF7 cells

EVAHTLTENRALQN [M10]
Kd (TRIB3-GST protein): 750 nM

EVAATLTENRVLQN [M3]
Kd (TRIB3-GST protein): 170 nM

VAHTLTENRVLQN [peptide Ae]
Kd (TRIB3-GST protein): 300 nM
